Structures can show the parent of a compound that is named as a salt.
Columns and labels:
[1] = test system: PU.1 occupancy on E2f1, Junb and Csf1r promoters; assay: Chromatin immunoprecipitation of PU.1 on target promoters in AML cells; format: cell-based; settings: ChIP
Protocol: FIG. 3A-3G. Novel inhibitors show on-target PU.1 inhibitory activity. (A) Quantitative RT-PCR analysis of Csf1r, Junb, Sfpi1, E2f1 expression after 72 h (n=6) and, for Csf1r, after 1 h (n=3), 4 h (n=7), 8 h (n=3) and 24 h (n=3) of treatment with the small molecules in URE−/− cells, expression is normalized to GAPDH expression. Data represent means±SD of technical triplicate from one representative experiment; fold change compared to Vehicle is shown. (B) Chromatin immunoprecipitation assay showing PU.1 occupancy on E2f1, Junb, Csf1r promoters after treatment in Umsh cell line (n=5). 10·10^6 cells were collected for each condition after 8 h treatment with a double dose of the small molecules (50 uM for DB1976, 1.4 uM for DB2115 and 660 nM for DB2313) or Vehicle; and processed for ChIP using PU.1 monoclonal antibody. Myogenin was used as a negative control, not regulated by PU.1. Data represent means±SD of technical triplicate from one representative experiment. (C) Cell viability after PU.1 rescue in MOLM13 cells. MOLM13 were transduced with a lentiviral construct expressing either PU.1-GFP (PU.1, black bar) or GFP as a control (empty, white bar), sorted on GFP and plated with DB1976 (n=7), DB2115 (n=8), DB2313 (n=6) or Vehicle. Cell count was performed after 4 days. Data represent means±SD of technical triplicate from one representative experiment; fold change compared to Vehicle is shown. (D-G) Transcriptome analysis of URE−/− cells after 24 h of treatment with DB2313 versus vehicle (n=3). Differentially expressed genes were determined with a fold change at 1.2 and a P value <0.1. […] Deregulated gens in PUER cells were analyzed with a FC at 1.5 and P-value <0.05. […] P-value was calculated using the hypergeometric test. […]
To assess on-target activity of our inhibitors in AML cells, we measured transcript levels of well-known PU.1 targets in PU.1 URE^−/− AML cells. […] As Csf1r is one of the most sensitive PU.1 targets in myeloid cells, we assessed its expression at different time points (1 h, 4 h, 8 h and 24 h) after drug treatment. […]

[2] = test system: PU.1 URE−/− AML cells; assay: Apoptosis (Annexin-V+Dapi−) in PU.1 URE−/− AML cells; format: cell-based; settings: murine PU.1 URE−/− AML cells, 48 h, vs vehicle
Protocol: FIG. 2A-2F. PU.1 inhibition decreases cell growth and increases apoptosis of PU.1^1″ leukemic cells. (A) Chemical structures of heterocyclic diamidines DB1976, DB2115 and DB2313 used in this study. (B) Relative cell viability of URE−/− cells and BAF3 cells after treatment with increasing concentrations of vehicle or small molecules. Cell viability was assessed after 48 h. Data represent means of technical triplicate from one representative experiment; fold change compared to Vehicle is shown. (C) Cell proliferation assay of URE−/− after treatment with DB1976 (n=5), DB2115 (n=3), DB2313 (n=3), of MOLM13 cells (n=3), and THP1 cells (n=3). Cell counting was performed every 24 h during 4 days. Data represent means±SD of technical triplicate from one representative experiment. Forward strand: SEQ ID NO:3, and Reverse strand: SEQ ID NO:4; derived from the λB motif from the murine Ig lambda 2-4 enhancer, a known native PU.1-dependent gene and specific binding site for PU.1. (D) Clonogenic capacities of URE−/− cells after treatment with DB1976 (n=5), DB2115 (n=3) and DB2313 (n=4) in the first plating, and after serial replatings (n=3). Data represent means±SD of technical triplicate from one representative experiment. (E) Apoptotic cells (Annexin-V+Dapi−) fraction in URE−/− cells after 48 h of treatment with DB1976 (n=6), DB2115 (n=6) and DB2313 (n=3). Data represent the means±SD of independent experiments; fold change compared to Vehicle is shown. *P<0.05, **P<0.01, ***P<0.001, ****P<0.0001 (F) Dose dependent inhibitor of PU.1-dependent transactivation.
To determine if our PU.1 inhibitors have an effect on PU.1^low-induced AML cells, we treated the PU.1 URE^−/− AML cell line with compounds at different concentrations. Treatment with the drugs led to a profound decrease in growth of PU.1 URE^−/− AML cells after 48 h whereas it had only minimal or no effects on control cells with normal PU.1 levels (BaF3), even at very high doses (FIG. 3A). […]

Structure (SMILES) | PU.1 occupancy on E2f1, Junb and Csf1r promoters [1] | fold increase of apoptotic cells [2]
N=C(N)c1ccc2nc(-c3ccc(-c4nc5ccc(C(=N)N)cc5[nH]4)[se]3)[nH]c2c1 [DB1976] | decreased | 1.6 fold
N=C(N)c1ccc2nc(-c3ccc(OCCCCOc4ccc(-c5nc6ccc(C(=N)N)cc6[nH]5)cc4)cc3)[nH]c2c1 [DB2115] | decreased | 2 fold
CC(C)NC(=N)c1ccc2nc(-c3ccc(OCc4cccc(COc5ccc(-c6nc7ccc(C(=N)NC(C)C)cc7[nH]6)cc5)c4F)cc3)[nH]c2c1 [DB2313, 3-Bis{4[4(5)-N-isopropylamidinobenzimidazolyl]phenoxymethyl]}-2-fluorobenzene tetrahydrochloride] | decreased | 3.5 fold

Source: US10774049B2, “PU.1 inhibitors” (Albert Einstein College of Medicine, priority 2016, dated 2020)
